SMILES strings stand for the structures.

As a reminder, the melting point is the temperature of the solid-liquid transition. On to `CCOC(=O)CCN(c1ccccc1)S(=O)(=O)c1ccc2c(c1)nc(CNc1ccc(C#N)cc1)n2C`, for which the melting point is 188 to 191 °C.

As for `Cc1c(N[C@@H](c2nnc(-c3ccc(F)c(O)c3)o2)[C@H](C)O)ccc(C#N)c1Cl`, the melting point lay within 103 to 108 °C.

`CCN1CCCCC1c1ccccc1C=CC(=O)Nc1ccccc1` (stereo unspecified): the melting point lay in the range of 120 to 122 °C.

For the compound `Cc1cc(C)nc(SCC(CS(=O)(=O)c2ccc(-c3ccc(Cl)cc3)cc2)C(=O)O)n1` (stereo unspecified), the melting point lay within 170 to 172 °C.

`Cc1nc(-c2ccc(OCC(C)C)c(Br)c2)sc1C(=O)O` returned a melting point of 200 to 202 °C.

As to `CN(C)C(=O)c1cccc(NC(=O)Oc2ccccc2)c1`, the melting point lay in the range of 151 to 153 °C.

In the case of `CCCC(=O)c1cc2c(cc1C)NC(=O)C2(O)C(=O)OCC` (stereo unspecified), the melting point was 180 to 181 °C.

Compound `O=C(NO)c1ccc(CNC(=O)c2[nH]c(-c3ccc(F)cc3)cc2-c2ccc(F)cc2)cc1` displayed a melting point of 219 to 220 °C.

Regarding `O=C(O)c1cc(NCc2c(F)c(F)c(C(F)(F)F)c(F)c2F)ccc1Br`, the melting point is 70 °C.

As to `COc1cc(C=CC(=O)CC(=O)C(F)(F)F)ccc1O`, the melting point was in the range of 97 to 100 °C.

For `CCCCC(CC)Cn1c2cc(CO)ccc2c2ccc(CO)cc21` (stereo unspecified), the melting point was in the range of 119 to 120 °C.

As to `CCCC(=O)Nc1c(C)c(C)c2c(c1C)C(c1ccc(C(C)C)cc1)C(C)(C)O2` (stereo unspecified), the melting point lay within 120 to 122 °C.

`Cc1cc(C(C)(C)CBr)c(C)nn1` gave a melting point of 45 to 46 °C.

As to `CC(O)c1c(-c2ccc(F)cc2)cc2c3c1ccn3C(=O)CNC2` (stereo unspecified), the melting point was in the range of 220 to 222 °C.

In the case of `CNC(=O)ON=C1SCC(=O)N1CCOC`, the melting point fell in the range of 153 to 155 °C.

The compound `CC(C)(C)OC(=O)NCCOc1noc2cccc(C#N)c12` gave a melting point of 116 to 117 °C.

`CCNc1nc(Cl)cc(NS(=O)(=O)c2ccc(N)cc2)n1` registered a melting point of 172 to 173 °C.

`O=C(CON=C(C(=O)O)c1csc(NC(=O)C(F)(F)F)n1)OC(c1ccccc1)c1ccccc1` had a melting point of 178 to 180 °C.

`COC(=O)c1cccc(NC(=S)Nc2cc(NC(=O)Nc3ccc(Cl)c(Cl)c3)ccc2OC)c1` displayed a melting point of 193 to 194 °C.

With `CCSc1nc(=O)n(C(=O)NC)s1`, the melting point is 131 °C.

As for `CC(C)(C(=O)O)C(=O)Oc1ccc(C(=O)c2ccccc2)cc1`, the melting point lay in the range of 147 to 150 °C.

`O=S1(=O)N=C(NCC2CC2)Nc2ccc(Cl)cc21`: the melting point was in the range of 288 to 290 °C.

On to `CC(=O)c1cc(Cl)c(N)c(I)c1F`, for which the melting point was 117 to 119 °C.

`CC(C)NC(=O)c1cc2nc(C3CC3)n(C)c2c(Cl)c1NC(=O)c1cc(C(F)(F)F)nn1-c1ncccc1Cl` registered a melting point of 242 to 244 °C.

For `Clc1ccc(Nc2nnc(-c3cccc(Oc4ccc(Cl)c(Cl)c4)c3)s2)cc1Cl`, the melting point is 189 to 190 °C.

In turn, `O=C1CSC(=S)N1N=c1sc2ccc(Cl)cc2s1` displayed a melting point of 312 to 314 °C.

The compound `CC(C)(C)OC(=O)C(Cl)=CC1C(C(=O)OC(C#N)c2ccc(F)c(Oc3ccccc3)c2)C1(C)C` (stereo unspecified) displayed a melting point of 94 °C.

On to `C#CCOc1cc(NN=C2CCCCN2C(=O)OC)c(Cl)cc1Cl`, for which the melting point is 137 to 138 °C.

`COc1ccc(C=CC(=O)O)cc1-c1cc2c(cc1OCCCCCCCC(=O)O)C(C)(C)CCC2(C)C`: the melting point lay within 212 to 214 °C.

Compound `Cc1c(C)n(CC2CC2C)c2c(OCc3ccc(F)cc3F)nncc12` (stereo unspecified) gave a melting point of 101 to 102 °C.

In the case of `COc1cc(CN2CCN(Cc3ccc(NC(=O)C4=Cc5cc(-c6ccc(C)cc6)ccc5CC4)cc3)CC2)cc(OC)c1OC`, the melting point is 143 to 144 °C.

On to `CN(C)c1cccc2c1c(=O)n(C)c1c(-c3nc(C4CC4)no3)ncn21`, for which the melting point was 214 °C.

In turn, `CCCOc1cc2ccccc2c2c(=O)c(-c3ccoc3)cn(C)c12` returned a melting point of 165 to 167 °C.

`CCC(=O)C1c2cccc(O)c2C(=O)c2c(OC(C)=O)cccc21` (stereo unspecified) returned a melting point of 106 °C.

With `CCOCOC1=C(c2cc(C)ccc2C)C(=O)NC12CCN(OC)CC2`, the melting point fell in the range of 150 to 152 °C.

Compound `COCCNC(=O)c1cccc(-c2cccc3cc(Cc4ccc5c(c4)CCO5)sc23)c1` came in with a melting point of 79 to 80 °C.

`NC(=S)c1nccc(F)c1Cn1ccnc1` had a melting point of 154 to 156 °C.

In turn, `CCCCCCCCCCCCC1CC(=C(C#N)C#N)CCC1=C(C#N)C#N` (stereo unspecified) yielded a melting point of 97 °C.

With `CN1C(=O)OCCc2cc(Nc3ncc(Cl)c(Nc4c(F)cccc4OCCO)n3)ccc21`, the melting point was in the range of 199 to 201 °C.

For the compound `CCOCOc1c(-c2ccc(C(=O)Nc3ccc(OC(C)=O)cc3)cc2)ccc2cc(OC)c(C34CC5CC(CC(C5)C3)C4)cc12`, the melting point is 206 to 207 °C.

The compound `O=C1CCc2c1cccc2C(F)(F)F` gave a melting point of 32 to 36 °C.

The compound `NS(=O)(=O)c1ncnc2c1ccn2C1CC(O)C(CO)O1` (stereo unspecified) gave a melting point of 175 to 177 °C.

Regarding `CN1CC(CO)CC2(OCCO)c3cccc4[nH]cc(c34)CC12` (stereo unspecified), the melting point fell in the range of 178 to 180 °C.

For the compound `COC(=O)Cc1c(C(=O)OC)oc2ccccc2c1=O`, the melting point came to 105 °C.

Compound `NS(=O)(=O)c1cccc(NC(=O)c2cnn3c(C(F)(F)F)cc(-c4ccc(C(F)(F)F)c(F)c4)nc23)c1` yielded a melting point of 259 °C.

`Cc1c(NC(=O)c2ccc(-c3ccccc3)cc2)ccc2cc(CN3CCCC3)cnc12` yielded a melting point of 184 to 186 °C.

In turn, `C=C(C)C1CCC2C3C=CC4=CC(=O)CCC4(C)C3C(O)CC12C` (stereo unspecified) returned a melting point of 153 to 155 °C.

In turn, `Cc1ccc(-c2ccc3c(c2)C=C(C(=O)Nc2ccc(C(O)c4ccccn4)cc2)C(C)O3)cc1` (stereo unspecified) gave a melting point of 202 to 205 °C.

As to `O=[N+]([O-])c1cnn2cnc3ccccc3c12`, the melting point fell in the range of 177 to 178 °C.

Regarding `Cc1nc(C(F)(F)F)ccc1C(=O)C1=C(Cl)C2CCC(C2)C1=O` (stereo unspecified), the melting point lay in the range of 137 to 138 °C.

For the compound `Nc1cc(N2C(=O)C3=C(CCCC3)C2=O)c(F)cc1Cl`, the melting point is 164 to 165 °C.

`CN1CCC(N(CCN2CCCC2)S(=O)(=O)c2ccc(Nc3nccc(Nc4ccc(F)cc4)n3)cc2)CC1` registered a melting point of 250 °C.

`CCOC(=O)NC(=NCCN(Cc1ccc(Cl)cc1)c1ccccn1)NCCCc1c[nH]cn1` had a melting point of 94 to 96 °C.

`CCCC(=O)c1cnc2c(C3CO3)cccc2c1Nc1ccccc1C` (stereo unspecified): the melting point was 114 to 116 °C.

Turning to `N#Cc1ccc(OCc2cccnc2)cc1F`, the melting point is 105 to 110 °C.

The compound `COc1ccc(OC)c(CC(=O)c2ccc(C(C)C)c(OS(N)(=O)=O)c2C(C)C)c1` came in with a melting point of 150 to 152 °C.

`CN(C)NC(=O)c1nc([N+](=O)[O-])cn1C`: the melting point stood at 154 °C.

On to `O=C1CC2(CN1)CC(=O)c1cc(Cl)cc(Cl)c12` (stereo unspecified), for which the melting point is 226 to 228 °C.

`COC(=O)c1sc(-c2ccccc2)c(N)c1N` displayed a melting point of 148 to 150 °C.

`CCC1(C)OC1COc1ccc(C(=O)c2ccccc2)cc1` (stereo unspecified): the melting point lay within 66 to 67 °C.

Consider `CCOC(=O)C(=CNC1CC1)C(=O)c1c(F)cc(F)c(F)c1N(Cc1ccccc1)C(C)=O`, for which the melting point is 119 to 121 °C.

`COc1ccc(CNc2c(-c3cc(Cl)ccc3O)c3cc(C(F)(F)F)ccc3[nH]c2=O)cc1` had a melting point of 103 to 106 °C.

In turn, `N#CC(NC(=O)c1cccc(Cl)c1)n1ccnn1` (stereo unspecified) registered a melting point of 157 to 159 °C.

For `CCN(C)C(=O)C(C)n1cc(C)c(-c2ccccc2)n1` (stereo unspecified), the melting point is 59 to 61 °C.

On to `COc1cccc(CC(=O)O)c1OCc1cc(OC(C)C)nn1Cc1ccc2ccccc2n1`, for which the melting point lay in the range of 129 to 130 °C.

`O=C1Cc2cccc(Oc3ccccc3Cl)c2O1` displayed a melting point of 118 to 120 °C.

`CCS(=O)(=O)c1cc(C(=O)NCC2CCCN2CC2CCC2)c(OC)cc1N` (stereo unspecified) yielded a melting point of 170 °C.

For `O=C(O)CCC(=O)Nc1ccc(N2CCN(C3(c4ccc(-c5ccccc5)cc4)C(=O)NC(=O)NC3=O)CC2)cc1`, the melting point is 246 to 247 °C.

`CCOC(=O)CC(=O)c1ccncn1` yielded a melting point of 52.3 °C.

On to `O=C1CCC(O)(c2ccc(Cl)c(Cl)c2)CN1Cc1ccccc1` (stereo unspecified), for which the melting point amounted to 128 °C.

The compound `O=[N+]([O-])c1ccc(-c2cc[nH]n2)cc1` displayed a melting point of 196 to 197 °C.

For `C=CC(=O)NCCCCCCCCCCCCCCCCCC`, the melting point lay within 75 to 77 °C.

`CCn1nc(C)sc1=Nc1ccc(N2CCN(c3ccc(OC)cc3)CC2)cc1` returned a melting point of 175 °C.

`CCCC(C)CC(C)(C)NC(=O)CN1C(=O)c2ccccc2C1=O` (stereo unspecified) showed a melting point of 132 °C.

With `NC(=O)c1c(F)cc(-c2ccc3nnn(Cc4ccc5ncccc5c4)c3n2)cc1F`, the melting point is 272 to 275 °C.

`CCOC(=O)c1sc(CC)nc1C(F)(F)F` had a melting point of 30 to 32 °C.

`Cc1cn([C@@H]2C[C@H](O)[C@@H](O)[C@H]2O)c(=O)[nH]c1=O` (racemic) yielded a melting point of 201 to 202 °C.

`CC(C)NC(=Nc1ccc(Cl)cc1)Nc1ncccc1OCc1c(F)cccc1F` yielded a melting point of 112 to 113 °C.

`Cc1c(C(=O)NN2CCCCC2)nn(-c2ccc(Cl)cc2Cl)c1-c1ccc(Cl)cc1`: the melting point amounted to 148 °C.

For `CCCC(=O)c1cc2c(=O)cc(C(=O)OC)[nH]c2c(C)c1C`, the melting point lay within 157 to 159 °C.

With `CCN1C(=O)C(C)(C)C(=O)N(C)c2cc(CN(CCn3ccc4oc(C)cc4c3=O)c3cccc4ncccc34)ccc21`, the melting point lay within 166 to 168 °C.

In turn, `Cc1ccc(-c2cc(CN3CCN(C(=O)OC(C)(C)C)CC3)c(=O)n(CC(C)C)n2)cc1F` displayed a melting point of 68.7 to 69 °C.

`Fc1cccc(F)c1-c1nc(COc2ccc(Oc3ccc(C(F)(F)F)cc3)cc2)no1` had a melting point of 83 to 84 °C.

Consider `COc1ccc(-c2[nH]c(-c3ccc(F)cc3)cc2C(=O)N2CCOCC2)cc1OC`, for which the melting point was 190 °C.

In turn, `CC(=O)OC1CSC(Oc2cccc(-c3cccnc3C)c2)C(OC(C)=O)C1OC(C)=O` (stereo unspecified) returned a melting point of 153 °C.

Turning to `O=C(NCC1Cc2ccccc2C1)OCc1ccccc1`, the melting point is 87 to 89 °C.

(Values after a melting point compilation (Tetko et al.; mined from patent text by program, amines drawn as free bases though some values may be those of a salt).)
